Where “and” joins values, the source holds several entries; their conditions need not be identical. Identical values can stand only once.
Tests used:
[1] = system: HK-2 cells; assay: TGF-β-induced α-SMA expression, western blot; type: cell-based, human
Protocol: INS018-055 stock was diluted to eight concentrations in a threefold dilution with DMSO from the final highest concentration at 10 μM. A total of 3.0 × 10^5 HK-2 cells per well were seeded into a six-well plate containing 2.0 ml culture medium at a density of 3.0 × 10^5 cells per well. The cells were cultured overnight at 37 °C. The next day, the complete medium was replaced with K-SFM medium supplemented with 0.025 mg ml^−1 bovine pituitary extract, 2.5 ng ml^−1 EGF and 1% penicillin–streptomycin for starvation. After 24 h of incubation, HK-2 cells were treated with compounds (eight concentrations, threefold dilution) for 30 min before being stimulated with 8 ng ml^−1 TGF-β for an additional 48 h. TGF-β induction was used as the maximum induction positive control. The final DMSO concentration in the assay was 0.1%. Cells were cultured for 48 h at 37 °C. The culture medium was discarded at the end of induction. Cells were washed once using ice-cold DPBS. RIPA buffer was added to lyse the cells for 20 min. Cells were collected, and the supernatant was stored at −80 °C. The total amount of protein in the lysate was determined using the BCA Protein Assay Kit.
For whole-cell lysates, cells were collected and lysed on ice for 20 min with RIPA buffer with protease and phosphatase inhibitors (cOmplete and PhosSTOP, Roche). The protein concentration of the cell lysates was determined using the BCA Protein Assay Kit. After denaturation, whole-cell lysates and cytoplasm and nuclear extraction fractions were loaded onto 4–12% gradient Bis-Tris gels (15 wells) and 4–20% Tris-glycine gels (26 wells), respectively. For western blot detection of target proteins, 15 μg of whole-cell lysates, 5–10 μg of the cytoplasm fraction, 1–2 μg of nuclear matrix and 2–4 μg of the chromatin fraction were loaded into each lane. For western blot detection of histone 3, 0.4–1 μg of the chromatin fraction was loaded. The gels were run for 0.5 h at 80 V before being run at 120 V for another 1 h. When electrophoresis was completed, the gels containing target proteins were transferred onto NC membrane using the iBlot 2 Gel Transfer Device for 13 min at 20 V. All membranes were blocked with 5% BSA in TBST buffer at room temperature for 1 h and then incubated with primary antibodies specific to the indicated targets in TBST buffer containing 5% BSA at 4 °C overnight. After the primary antibody, membranes were washed three times with TBST buffer before incubation with HRP-conjugated secondary antibodies at room temperature for 1 h. Membranes were stripped with Restore Western Blot Stripping Buffer (Thermo Fisher) for GAPDH reference protein detection after exposure for the target proteins. Images of blots were acquired using Image Quant LAS 4000. Integrated intensity of bands from 16-bit blot images was used for quantitation with the software Image Studio Lite. Protein-quantification data of two independent experiments were calculated and analyzed using GraphPad.

[2] = system: healthy subjects; conditions: in vivo
[3] = system: healthy subjects; assay: Phase I New Zealand safety (NCT05154240); conditions: n (%) [E]
[4] = system: C57BL/6 mice; assay: Unilateral ureteral obstruction (UUO) kidney fibrosis model; conditions: for Positive area (%), per mouse: Fig 5B-D Individual Values;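 on all read-outs here: mice had the left ureter ligated on day 0, received treatment from day 0 through day 14 and were killed on day 14 for kidney analysis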
Protocol: The surgery took place on two separate days. Mice were divided into two slots based on their body weight before the day of the surgery. On day 0 (day of surgery), UUO surgery was performed after administration of three types of mixed anesthetic agents (medetomidine, midazolam, butorphanol). Mice were shaved at the incision site, the abdomen was cut open, and the left ureter was exteriorized and ligated with 4-0 silk sutures at two points. Finally, the peritoneum and the skin were closed with sutures.
Treatments were applied from day 0 to day 14. And animals were killed on day 14, and blood and tissue samples were collected.
Frozen kidney samples were processed by an alkaline acid hydrolysis method as follows. […] Next, AC buffer (2.2 M acetic acid and 0.48 M citric acid, 400 μl) was added to the samples, followed by centrifugation to collect the supernatant. […] The samples were then mixed with Ehrlich’s solution (400 μl) and heated at 65 °C for 20 min to develop color. After samples were cooled on ice and centrifuged to remove precipitates, the optical density of each supernatant was measured at 560 nm. Hydroxyproline concentrations were calculated from the hydroxyproline standard curve. Kidney hydroxyproline contents were expressed as μg per mg protein, and the amount of protein was determined using the BCA Protein Assay Kit (Thermo Fisher Scientific).
At the end of the UUO study, the left kidney was fixed in Bouin’s solution and embedded in paraffin. Kidney sections were stained using picro-Sirius red solution (Waldeck). To quantify the interstitial fibrosis area, brightfield images in the corticomedullary region were captured using a digital camera (DFC295) at 200-fold magnification, and the positive areas in five fields per section were measured using ImageJ software (National Institute of Health).
Paraffin sections were deparaffinized and hydrophilized with xylene, 100–70% alcohol series and RO water, and then circles were drawn around the kidney sections. […] After washing with PBS, kidney sections were treated with PBS with Tween-20 (PBST), followed by incubation with Block Ace (DS Pharma Biomedical) at room temperature for 10 min. The sections were incubated with the primary antibody (anti-collagen I) at 4 °C overnight. After washing with PBS, kidney sections were treated with PBST, followed by incubation with secondary antibody at room temperature for 30 min. After washing with PBS, kidney sections were fixed with 1% glutaraldehyde solution at room temperature for 1 min. After washing with RO water, kidney sections were treated with PBST and then colored using a chromogenic substrate (Simple Stain DAB, Nichirei Bioscience). After washing with RO water, kidney sections were immersed in an eightfold-diluted hematoxylin solution for 1 min and washed with RO water immediately. […] For scoring of IHC analyses, brightfield images were captured using a digital camera (DFC295) at 200-fold magnification, and the score in one field per section was determined.

[5] = INS018_055 3 mg/kg BID, individual animals, Fig 5C-D, 3 mg/kg
[6] = INS018_055 10 mg/kg BID, individual animals, Fig 5C-D, 10 mg/kg
[7] = INS018_055 30 mg/kg BID, individual animals, Fig 5C-D, 30 mg/kg

## CC(C)n1cnc(-c2ccc(F)cc2)c1-c1nc(C(=O)Nc2ccc(N3CCN(C)CC3)cc2)c[nH]1 [INS018_055, 2-[4-(4-fluorophenyl)-1-(prop-2-yl)imidazol-5-yl]-N-[4-(4-methylhexahydropyrazin-1-yl)phenyl]-1H-imidazole-4-carboxamide]
[1]; 0.004572 uM
  a-SMA normalized by GAPDH: 2.139
[1]; 0.0411523 uM
  a-SMA normalized by GAPDH: 1.835
[1]; 0.123457 uM
  a-SMA normalized by GAPDH: 1.612
[1]; 0.37037 uM
  a-SMA normalized by GAPDH: 1.401
[1]; 3.33333 uM
  a-SMA normalized by GAPDH: 1.182
[1]; 10 uM
  a-SMA normalized by GAPDH: 1.23
[1]; TGF-β 8 ng/ml, 48 h, single experiment, read-out: IC50 for α-SMA inhibition
  IC50: 104 nM
[2]
  Abdominal pain: 1 (5.6) [1]
  Alanine aminotransferase increased: 1 (5.6) [1]
  Alopecia: 0 [0]
  Any SAE: 0 [0]
  Any Severe TEAE: 0 [0]
  Any Treatment-Related Moderate TEAE: 0 [0]
  Any Treatment-Related SAE: 0 [0]
  Any Treatment-Related Severe TEAE: 0 [0]
  Aphthous ulcer: 1 (5.6) [1]
  Aspartate aminotransferase increased: 1 (5.6) [1]
  Back pain: 1 (5.6) [1]
  Blood creatine phosphokinase increased: 1 (5.6) [1]
  Catheter site bruise: 1 (5.6) [1]
  Catheter site inflammation: 1 (5.6) [1]
  Catheter site pain: 0 [0]
  Catheter site swelling: 1 (5.6) [1]
  Constipation: 1 (3.3) [1]
  Cough: 1 (3.3) [1]
  Diarrhoea: 1 (5.6) [1]
  Gastrointestinal disorder: 0 [0]
  Immune system disorders: 1 (5.6) [1]
  Lymph node palpable: 1 (5.6) [1]
  Medical device site irritation: 2 (6.7) [2]
  Nasal congestion: 1 (5.6) [1]
  Nausea: 1 (5.6) [1]
  Nightmare: 1 (5.6) [1]
  Paraesthesia: 0 [0]
  Phlebitis: 3 (10.0) [3]
  Pruritus: 1 (5.6) [1]
  Psychiatric disorders: 1 (5.6) [1]
  Rhinorrhoea: 0 [0]
  Seasonal allergy: 1 (5.6) [1]
  Skin mass: 1 (5.6) [1]
  Syncope: 1 (3.3) [1]
  Urticaria: 0 [0]
  Vascular disorders: 3 (10.0) [3]
[3]; MAD any dose N=18
  Any Death: 0 [0]
[3]; SAD any dose N=30
  Any Death: 0 [0]
[4]; [5]
  Fibrosis area (sirius red positive area): 2.24 and 2.26 and 1.61 and 1.34 and 1.14 and 1.04
  Kidney hydroxyproline: 6.42 and 7.24 and 6.97 and 8.63 and 7.89 and 3.86 and 2.76 and 8.85
[4]; [6]
  Fibrosis area (sirius red positive area): 0.48 and 0.7 and 0.89 and 0.94 and 0.99 and 0.64 and 0.93 and 1.12
  Kidney hydroxyproline: 4.39 and 2.86 and 3.32 and 6 and 3.14 and 6.84 and 3.33 and 3
[4]; [7]
  Collagen Type 1 score: 2
  Fibrosis area (sirius red positive area): 0.44 and 0.53 and 0.81 and 0.2 and 0.68 and 0.43 and 0.38 and 0.73
  Kidney hydroxyproline: 2.37 and 2.39 and 2.44 and 2.78 and 2.29 and 3.08 and 2.31
[4]; INS018_055 high dose group, value per mouse (501-508) over 5 photos
  Positive area (%), per mouse: 0.43% and 0.38% and 0.73% and 0.44% and 0.53% and 0.81% and 0.20% and 0.68%
[4]; INS018_055 low dose group, value per mouse (301-308) over 5 photos
  Positive area (%), per mouse: 1.34% and 1.14% and 1.04% and 2.24% and 2.26% and 1.61%
[4]; INS018_055 middle dose group, value per mouse (401-408) over 5 photos
  Positive area (%), per mouse: 0.94% and 0.99% and 0.64% and 0.93% and 1.12% and 0.48% and 0.70% and 0.89%
